Measurements from ChEMBL document CHEMBL5523746, “Discovery of Novel Peptide Antagonists Targeting GPR55 for Liver Inflammation and Fibrosis” (2024).
Bridge positions count the residues as written; N and C are the ends. Peptide text beside a SMILES is read from it.

Experiments:
LX-2 [1] = assay: Anti-fibrotic activity in human LX2 cells assessed as reduction in […] expression by measuring relative inhibition rate measured after 24 hrs incubation by Western blot analysis relative to control; assay type: functional; set-up: concentration or dose not given beside the values
LX-2 [2] = assay: Anti-fibrotic activity in human LX2 cells assessed as reduction in COL1alpha expression by measuring relative inhibition rate measured after 24 hrs incubation by Western blot analysis relative to control; assay type: functional; set-up: concentration or dose not given beside the values

| SMILES | Activity (LX-2 [1]) | Activity (LX-2 [2]) |
| --- | --- | --- |
| CC(C)C[C@@H]1NC(=O)[C@H]([C@@H](C)O)NC(=O)[C@@H]2CCCN2C(=O)[C@H](CO)NC(=O)[C@H](CC(N)=O)NC(=O)[C@H](CCCCN)NC(=O)[C@H](CCCCN)NC(=O)[C@@H](N)CSSC[C@@H](C(=O)O)NC1=O (H-CKKNSPTLC-OH; disulfide 1-9) | 66.4% | 57.5% |
| C[C@@H](O)[C@@H]1NC(=O)[C@@H]2CCCN2C(=O)[C@H](CO)NC(=O)[C@H](CC(N)=O)NC(=O)[C@H](CCCCN)NC(=O)[C@H](CCCCN)NC(=O)[C@@H](N)CSSC[C@@H](C(=O)O)NC(=O)[C@H](CCC(N)=O)NC1=O (H-CKKNSPTQC-OH; disulfide 1-9) | 82.3% | 74.6% |
| C[C@@H](O)[C@@H]1NC(=O)[C@@H]2CCCN2C(=O)[C@H](CO)NC(=O)[C@H](CC(N)=O)NC(=O)[C@H](CCCCN)NC(=O)[C@H](CCCCN)NC(=O)[C@@H](N)CSSC[C@@H](C(=O)O)NC(=O)[C@H](Cc2c[nH]cn2)NC1=O (H-CKKNSPTHC-OH; disulfide 1-9) | 71.5% | 62.6% |
| CC(C)C[C@@H]1NC(=O)[C@H]([C@@H](C)O)NC(=O)[C@@H]2CCCN2C(=O)[C@H]([C@@H](C)O)NC(=O)[C@H](CC(N)=O)NC(=O)[C@H](CCCCN)NC(=O)[C@H](CCCCN)NC(=O)[C@@H](N)CSSC[C@@H](C(=O)O)NC1=O (H-CKKNTPTLC-OH; disulfide 1-9) | 91.6% | 85.7% |
| CC(C)C[C@@H]1NC(=O)[C@H](CCCNC(=N)N)NC(=O)[C@@H]2CCCN2C(=O)[C@H](CO)NC(=O)[C@H](CC(N)=O)NC(=O)[C@H](CCCCN)NC(=O)[C@H](CCCCN)NC(=O)[C@@H](N)CSSC[C@@H](C(=O)O)NC1=O (H-CKKNSPRLC-OH; disulfide 1-9) | 92.6% | 76.7% |
| C[C@@H](O)[C@@H]1NC(=O)[C@H]([C@@H](C)O)NC(=O)[C@@H]2CCCN2C(=O)[C@H](CO)NC(=O)[C@H](CC(N)=O)NC(=O)[C@H](CCCCN)NC(=O)[C@H](CCCCN)NC(=O)[C@@H](N)CSSC[C@@H](C(=O)O)NC1=O (H-CKKNSPTTC-OH; disulfide 1-9) | 84.9% | 66.1% |
| CC(C)C[C@@H]1NC(=O)[C@H]([C@@H](C)O)NC(=O)[C@H](C)NC(=O)[C@H](CO)NC(=O)[C@H](CC(N)=O)NC(=O)[C@H](CCCCN)NC(=O)[C@H](CCCCN)NC(=O)[C@@H](N)CSSC[C@@H](C(=O)O)NC1=O (H-CKKNSATLC-OH; disulfide 1-9) | 91.8% | 140.1% |
| CC(C)C[C@@H]1NC(=O)[C@H]([C@@H](C)O)NC(=O)[C@@H]2CCCN2C(=O)[C@H](CO)NC(=O)[C@H](C)NC(=O)[C@H](CCCCN)NC(=O)[C@H](CCCCN)NC(=O)[C@@H](N)CSSC[C@@H](C(=O)O)NC1=O (H-CKKASPTLC-OH; disulfide 1-9) | 87.7% | 132.9% |
| CC(C)C[C@@H]1NC(=O)[C@H](CCC(=O)O)NC(=O)[C@@H]2CCCN2C(=O)[C@H](CO)NC(=O)[C@H](CC(N)=O)NC(=O)[C@H](CCCCN)NC(=O)[C@H](CCCCN)NC(=O)[C@@H](N)CSSC[C@@H](C(=O)O)NC1=O (H-CKKNSPELC-OH; disulfide 1-9) | 82.9% | 59.2% |
| CC(C)C[C@@H]1NC(=O)[C@H]([C@@H](C)O)NC(=O)[C@@H]2CCCN2C(=O)[C@H](CO)NC(=O)[C@H](CC(N)=O)NC(=O)[C@H](CCCCN)NC(=O)[C@H](C)NC(=O)[C@@H](N)CSSC[C@@H](C(=O)O)NC1=O (H-CAKNSPTLC-OH; disulfide 1-9) | 76.4% | 90.3% |
| C[C@@H]1NC(=O)[C@H]([C@@H](C)O)NC(=O)[C@@H]2CCCN2C(=O)[C@H](CO)NC(=O)[C@H](CC(N)=O)NC(=O)[C@H](CCCCN)NC(=O)[C@H](CCCCN)NC(=O)[C@@H](N)CSSC[C@@H](C(=O)O)NC1=O (H-CKKNSPTAC-OH; disulfide 1-9) | – | 74.1% |
| CC(C)C[C@@H]1NC(=O)[C@H](CO)NC(=O)[C@@H]2CCCN2C(=O)[C@H](CO)NC(=O)[C@H](CC(N)=O)NC(=O)[C@H](CCCCN)NC(=O)[C@H](CCCCN)NC(=O)[C@@H](N)CSSC[C@@H](C(=O)O)NC1=O (H-CKKNSPSLC-OH; disulfide 1-9) | 93.8% | 69.4% |
| CC(C)C[C@@H]1NC(=O)[C@H]([C@@H](C)O)NC(=O)[C@@H]2CCCN2C(=O)[C@H](CO)NC(=O)[C@H](CC(=O)O)NC(=O)[C@H](CCCCN)NC(=O)[C@H](CCCCN)NC(=O)[C@@H](N)CSSC[C@@H](C(=O)O)NC1=O (H-CKKDSPTLC-OH; disulfide 1-9) | 82.4% | 64.7% |
| CC(C)C[C@@H]1NC(=O)[C@H]([C@@H](C)O)NC(=O)[C@@H]2CCCN2C(=O)[C@H](CO)NC(=O)[C@H](CC(N)=O)NC(=O)[C@H](C)NC(=O)[C@H](CCCCN)NC(=O)[C@@H](N)CSSC[C@@H](C(=O)O)NC1=O (H-CKANSPTLC-OH; disulfide 1-9) | 88.9% | 139.1% |
| CC(C)C[C@@H]1NC(=O)[C@H](C)NC(=O)[C@@H]2CCCN2C(=O)[C@H](CO)NC(=O)[C@H](CC(N)=O)NC(=O)[C@H](CCCCN)NC(=O)[C@H](CCCCN)NC(=O)[C@@H](N)CSSC[C@@H](C(=O)O)NC1=O (H-CKKNSPALC-OH; disulfide 1-9) | 61.2% | 79.7% |
| CC(C)C[C@@H]1NC(=O)[C@H]([C@@H](C)O)NC(=O)[C@@H]2CCCN2C(=O)[C@H](C)NC(=O)[C@H](CC(N)=O)NC(=O)[C@H](CCCCN)NC(=O)[C@H](CCCCN)NC(=O)[C@@H](N)CSSC[C@@H](C(=O)O)NC1=O (H-CKKNAPTLC-OH; disulfide 1-9) | 74.5% | 99.4% |
| CC(C)C[C@@H]1NC(=O)[C@H](CO)NC(=O)[C@H](CC(N)=O)NC(=O)[C@H](CCCCN)NC(=O)[C@H](CCCCN)NC(=O)[C@@H](N)CSSC[C@@H](C(=O)O)NC(=O)[C@H](CC(C)C)NC(=O)[C@H]([C@@H](C)O)NC1=O (H-CKKNSLTLC-OH; disulfide 1-9) | 68.9% | 66.1% |
